# Test system: K562/ADR
# Test: Leukemia cell growth inhibition, MTT, 72 h
# Type: cell-based
# Conditions: Homo sapiens
# Excerpt: (§1) Leukemia cell lines: leukemia cell lines: K562/adr (drug-resistant, chronic myeloid leukemia, CML), NB4 (acute promyelocytic leukemia, AML), Kasumi-1 (acute myeloid leukemia M2 type, AML-M2), Jurkat (acute lymphoblastic leukemia, ALL), all of which were donated by Cancer Research Institute of Zhejiang University, China; and H9 (acute lymphoblastic leukemia, ALL), which was purchased from China Center for Type Culture Collection.
# (§2) 6000 well-growing leukemia cells were obtained and inoculated into wells of a 96-well cell culture plate. […] On the next day, the 1-oxo/acylated-14-acylated oridonin derivatives of different concentrations were added and mixed uniformly. The plate was placed in a carbon dioxide cell incubator (5% CO2) at 37° C. and was incubated for 72 hours. Then the viable cell concentration was determined by MTT method.
IC50 [µg/mL],IC90 [µg/mL],SMILES
0.43,1.74,C=C1C(=O)[C@]23[C@H](OC(=O)/C=C/c4ccccc4)[C@H]1CC[C@H]2[C@@]12CO[C@@]3(O)[C@@H](O)[C@@H]1C(C)(C)CCC2=O [BS-OR-019]

# Test system: Kasumi-1
# Test: Leukemia cell growth inhibition, MTT, 72 h
# Type: cell-based
# Conditions: Homo sapiens
# Excerpt: as §1, §2
IC50 [µg/mL],IC90 [µg/mL],SMILES
0.58,1.55,C=C1C(=O)[C@]23[C@H](OC(=O)/C=C/c4ccccc4)[C@H]1CC[C@H]2[C@@]12CO[C@@]3(O)[C@@H](O)[C@@H]1C(C)(C)CCC2=O [BS-OR-019]

# Test system: H9
# Test: Leukemia cell growth inhibition, MTT, 72 h
# Type: cell-based, human
# Conditions: Homo sapiens, H9; 72 h, MTT
# Excerpt: as §1, §2
IC50 [µg/mL],IC90 [µg/mL],SMILES
2.69,5.41,C=C1C(=O)[C@]23[C@H](OC(=O)/C=C/c4ccccc4)[C@H]1CC[C@H]2[C@@]12CO[C@@]3(O)[C@@H](O)[C@@H]1C(C)(C)CCC2=O [BS-OR-019]

# Test system: Jurkat
# Test: Leukemia cell growth inhibition, MTT, 72 h
# Type: cell-based, human
# Conditions: Homo sapiens, Jurkat; 72 h, MTT
# Excerpt: as §1, §2
IC50 [µg/mL],IC90 [µg/mL],SMILES
0.58,2.48,C=C1C(=O)[C@]23[C@H](OC(=O)/C=C/c4ccccc4)[C@H]1CC[C@H]2[C@@]12CO[C@@]3(O)[C@@H](O)[C@@H]1C(C)(C)CCC2=O [BS-OR-019]

# Test system: NB4
# Test: Leukemia cell growth inhibition, MTT, 72 h
# Type: cell-based, human
# Conditions: Homo sapiens, NB-4; 72 h, MTT
# Excerpt: as §1, §2
IC50 [µg/mL],IC90 [µg/mL],SMILES
1.02,3.66,C=C1C(=O)[C@]23[C@H](OC(=O)/C=C/c4ccccc4)[C@H]1CC[C@H]2[C@@]12CO[C@@]3(O)[C@@H](O)[C@@H]1C(C)(C)CCC2=O [BS-OR-019]

# Test system: RPMI 8226
# Test: Multiple myeloma cell growth inhibition, MTT, 72 h
# Type: cell-based
# Conditions: Homo sapiens
# Description: Multiple myeloma cell lines: RPMI8226 (multiple myeloma), purchased from Fuxiang Bio-tech Co. Ltd., Shanghai, China.
# as §2, with “well-growing” for “well-growing leukemia”, “and” for “and was”
IC50 [µg/mL],IC90 [µg/mL],SMILES
0.34,1.7,C=C1C(=O)[C@]23[C@H](OC(=O)/C=C/c4ccccc4)[C@H]1CC[C@H]2[C@@]12CO[C@@]3(O)[C@@H](O)[C@@H]1C(C)(C)CCC2=O [BS-OR-019]

# Test system: CNE
# Test: Solid tumor cell growth inhibition, MTT, 72 h
# Type: cell-based, human
# Conditions: Homo sapiens, CNE; 72 h, MTT
# Description: (§3) 6000 well-growing human solid tumor cells were obtained and inoculated into wells of a 96-well cell culture plate. The culture medium was DMEM High Glucose cell culture medium containing 10% fetal bovine serum. The plate was placed in a carbon dioxide cell incubator (5% CO2) at 37° C. and incubated for 24 hours. After added with 1-oxo/acylated-14-acylated oridonin derivatives of different concentration and mixed uniformly, the plate was placed in a carbon dioxide cell incubator (5% CO2) at 37° C. and incubated for 72 hours. Then the viable cell concentration was determined by MTT method.
IC50 [µg/mL],IC90 [µg/mL],SMILES
7.19,> 16,C=C1C(=O)[C@]23[C@H](OC(=O)/C=C/c4ccccc4)[C@H]1CC[C@H]2[C@@]12CO[C@@]3(O)[C@@H](O)[C@@H]1C(C)(C)CCC2=O [BS-OR-019]

# Test system: Hela
# Test: Solid tumor cell growth inhibition, MTT, 72 h
# Type: cell-based, human
# Conditions: Homo sapiens, HeLa; 72 h, MTT
# Description: as §3
IC50 [µg/mL],IC90 [µg/mL],SMILES
1.43,3.74,C=C1C(=O)[C@]23[C@H](OC(=O)/C=C/c4ccccc4)[C@H]1CC[C@H]2[C@@]12CO[C@@]3(O)[C@@H](O)[C@@H]1C(C)(C)CCC2=O [BS-OR-019]

# Test system: Hep-2
# Test: Solid tumor cell growth inhibition, MTT, 72 h
# Type: cell-based, human
# Conditions: Homo sapiens, HEp-2; 72 h, MTT
# Description: as §3
IC50 [µg/mL],IC90 [µg/mL],SMILES
10.7,> 16,C=C1C(=O)[C@]23[C@H](OC(=O)/C=C/c4ccccc4)[C@H]1CC[C@H]2[C@@]12CO[C@@]3(O)[C@@H](O)[C@@H]1C(C)(C)CCC2=O [BS-OR-019]

# Test system: MGC-803
# Test: Solid tumor cell growth inhibition, MTT, 72 h
# Type: cell-based, human
# Conditions: Homo sapiens, MGC-803; 72 h, MTT
# Description: as §3
IC50 [µg/mL],IC90 [µg/mL],SMILES
4.98,12,C=C1C(=O)[C@]23[C@H](OC(=O)/C=C/c4ccccc4)[C@H]1CC[C@H]2[C@@]12CO[C@@]3(O)[C@@H](O)[C@@H]1C(C)(C)CCC2=O [BS-OR-019]

# Test system: A549
# Test: Solid tumor cell growth inhibition, MTT, 72 h
# Type: cell-based
# Conditions: Homo sapiens
# Description: as §3
IC50 [µg/mL],IC90 [µg/mL],SMILES
1.66,4.43,C=C1C(=O)[C@]23[C@H](OC(=O)/C=C/c4ccccc4)[C@H]1CC[C@H]2[C@@]12CO[C@@]3(O)[C@@H](O)[C@@H]1C(C)(C)CCC2=O [BS-OR-019]

# Test system: Becap-37
# Test: Solid tumor cell growth inhibition, MTT, 72 h
# Type: cell-based
# Conditions: Homo sapiens
# Description: as §3
IC50 [µg/mL],IC90 [µg/mL],SMILES
0.89,8.43,C=C1C(=O)[C@]23[C@H](OC(=O)/C=C/c4ccccc4)[C@H]1CC[C@H]2[C@@]12CO[C@@]3(O)[C@@H](O)[C@@H]1C(C)(C)CCC2=O [BS-OR-019]

# Test system: CaEs-17
# Test: Solid tumor cell growth inhibition, MTT, 72 h
# Type: cell-based
# Conditions: Homo sapiens, CaEs17
# Description: as §3
IC50 [µg/mL],IC90 [µg/mL],SMILES
0.89,5.62,C=C1C(=O)[C@]23[C@H](OC(=O)/C=C/c4ccccc4)[C@H]1CC[C@H]2[C@@]12CO[C@@]3(O)[C@@H](O)[C@@H]1C(C)(C)CCC2=O [BS-OR-019]

# Test system: Hep G2
# Test: Solid tumor cell growth inhibition, MTT, 72 h
# Type: cell-based
# Conditions: Homo sapiens, HepG2
# Description: as §3
IC50 [µg/mL],IC90 [µg/mL],SMILES
0.94,14.6,C=C1C(=O)[C@]23[C@H](OC(=O)/C=C/c4ccccc4)[C@H]1CC[C@H]2[C@@]12CO[C@@]3(O)[C@@H](O)[C@@H]1C(C)(C)CCC2=O [BS-OR-019]

# Test system: MG-63
# Test: Solid tumor cell growth inhibition, MTT, 72 h
# Type: cell-based
# Conditions: Homo sapiens
# Description: as §3
IC50 [µg/mL],IC90 [µg/mL],SMILES
0.35,0.79,C=C1C(=O)[C@]23[C@H](OC(=O)/C=C/c4ccccc4)[C@H]1CC[C@H]2[C@@]12CO[C@@]3(O)[C@@H](O)[C@@H]1C(C)(C)CCC2=O [BS-OR-019]

# Test system: PANC-1
# Test: Solid tumor cell growth inhibition, MTT, 72 h
# Type: cell-based
# Conditions: Homo sapiens
# Description: as §3
IC50 [µg/mL],IC90 [µg/mL],SMILES
1.53,9.62,C=C1C(=O)[C@]23[C@H](OC(=O)/C=C/c4ccccc4)[C@H]1CC[C@H]2[C@@]12CO[C@@]3(O)[C@@H](O)[C@@H]1C(C)(C)CCC2=O [BS-OR-019]

# Test system: PC-3
# Test: Solid tumor cell growth inhibition, MTT, 72 h
# Type: cell-based
# Conditions: Homo sapiens
# Description: as §3
IC50 [µg/mL],IC90 [µg/mL],SMILES
1.41,3.86,C=C1C(=O)[C@]23[C@H](OC(=O)/C=C/c4ccccc4)[C@H]1CC[C@H]2[C@@]12CO[C@@]3(O)[C@@H](O)[C@@H]1C(C)(C)CCC2=O [BS-OR-019]

# Test system: RKO
# Test: Solid tumor cell growth inhibition, MTT, 72 h
# Type: cell-based
# Conditions: Homo sapiens
# Description: as §3
IC50 [µg/mL],IC90 [µg/mL],SMILES
0.38,0.89,C=C1C(=O)[C@]23[C@H](OC(=O)/C=C/c4ccccc4)[C@H]1CC[C@H]2[C@@]12CO[C@@]3(O)[C@@H](O)[C@@H]1C(C)(C)CCC2=O [BS-OR-019]

# Test system: SK-OV-3
# Test: Solid tumor cell growth inhibition, MTT, 72 h
# Type: cell-based
# Conditions: Homo sapiens, SK-OV-3; 72 h, MTT; read-out: IC50 SK-OV-3
# Description: as §3
row,IC50 [µg/mL],SMILES
1,1.41,C=C1C(=O)[C@]23[C@H](OC(=O)/C=C/c4ccccc4)[C@H]1CC[C@H]2[C@@]12CO[C@@]3(O)[C@@H](O)[C@@H]1C(C)(C)CCC2=O [BS-OR-019]

# Same assay, conditions: Homo sapiens, SK-OV-3; 72 h, MTT; read-out: IC90 SK-OV-3
row,IC90 [µg/mL],SMILES
1,3.86,C=C1C(=O)[C@]23[C@H](OC(=O)/C=C/c4ccccc4)[C@H]1CC[C@H]2[C@@]12CO[C@@]3(O)[C@@H](O)[C@@H]1C(C)(C)CCC2=O [BS-OR-019]

# Test system: U87-MG
# Test: Solid tumor cell growth inhibition, MTT, 72 h
# Type: cell-based
# Conditions: Homo sapiens, U-87 MG
# Description: as §3
IC50 [µg/mL],IC90 [µg/mL],SMILES
0.77,2.43,C=C1C(=O)[C@]23[C@H](OC(=O)/C=C/c4ccccc4)[C@H]1CC[C@H]2[C@@]12CO[C@@]3(O)[C@@H](O)[C@@H]1C(C)(C)CCC2=O [BS-OR-019]
